According to patent US20240058283A1, “THE MODE OF ACTION OF N-MeDCPA ON TRPC CHANNELS” (West Virginia University Board of Governors on Behalf of …, priority 2022, published 2024):

Key:
[1] = Serum levels in vivo
Description: We have extensively investigated inhibitors of the store-operated Ca^2+ entry (SOCE) pathway as a target for control of bone erosion, particularly in the context of arthritis. […] On this basis, we have assessed the possibility that DCPA and/or DCPA analogs might be effective inhibitors of bone erosion in the context of arthritis^6. While this has proven to the case (data not shown), this investigation has opened new questions regarding the true identity of the DCPA target. […] As such, we have assessed the possibility that DCPA and its analogs may have a different target, especially within the context of arthritis.

[2] = test system: osteoclasts; details: reference 3, cited from earlier work

For CCC(=O)Nc1ccc(Cl)c(Cl)c1 [DCPA, 3,4-dichloropropionaniline], the serum levels [1] is given as no more than 100 nM, the “formation of bone degrading osteoclasts” value ([2]; in vitro) is given as “reduced the formation of bone degrading osteoclasts” and the “concentration needed to block osteoclast differentiation” value ([2]; no block below this concentration) is given as no less than 100 µM.
